ChEMBL document CHEMBL1697781, “Assessment of the health effects of chemicals in humans: II. Construction of an adverse effects database for QSAR modeling” (Curr Drug Discov Technol, 2004)

Tests used:
Conditions in all cases: human; call rule not given here
Hepatotoxicity [1] = assay: FDA HLAED, alkaline phosphatase increase
Hepatotoxicity [2] = assay: FDA HLAED, serum glutamic pyruvic transaminase (SGPT) increase
Hepatotoxicity [3] = assay: FDA HLAED, lactate dehydrogenase (LDH) increase
Hepatotoxicity [4] = assay: FDA HLAED, serum glutamic oxaloacetic transaminase (SGOT) increase
Hepatotoxicity [5] = assay: FDA HLAED, gamma-glutamyl transferase (GGT) increase
Hepatotoxicity [6] = assay: FDA HLAED, liver enzyme composite activity
Throughout, for GGT Increase - Index Value: reference of the scale not given here.
Throughout, for LDH Increase - Index Value: reference of the scale not given here.

| Compound | Alkaline Phosphatase Increase - Activity Score (Hepatotoxicity [1]) | Alkaline Phosphatase Increase - Index Value (Hepatotoxicity [1]) | Alkaline Phosphatase Increase - Number of Reports (Hepatotoxicity [1]) | SGPT Increase - Activity Score (Hepatotoxicity [2]) | SGPT Increase - Index Value (Hepatotoxicity [2]) | SGPT Increase - Number of Reports (Hepatotoxicity [2]) | LDH Increase - Activity Score (Hepatotoxicity [3]) | LDH Increase - Index Value (Hepatotoxicity [3]) | LDH Increase - Number of Reports (Hepatotoxicity [3]) | SGOT Increase - Activity Score (Hepatotoxicity [4]) | SGOT Increase - Index Value (Hepatotoxicity [4]) | SGOT Increase - Number of Reports (Hepatotoxicity [4]) | GGT Increase - Activity Score (Hepatotoxicity [5]) | GGT Increase - Index Value (Hepatotoxicity [5]) | GGT Increase - Number of Reports (Hepatotoxicity [5]) | Composite Activity - Active (Hepatotoxicity [6]) | Composite Activity - Marginal (Hepatotoxicity [6]) | Composite Activity - Score (Hepatotoxicity [6]) |
| --- | --- | --- | --- | --- | --- | --- | --- | --- | --- | --- | --- | --- | --- | --- | --- | --- | --- | --- |
| CNS(=O)(=O)Cc1ccc2[nH]cc(CCN(C)C)c2c1 | Inactive | 0.1 | >= 4 | Inactive | 0.3 | >= 4 | Inactive | 0.1 | >= 4 | Inactive | 0.3 | >= 4 | Inactive | 0.1 | < 4 | 0 | 0 | Inactive |
| COc1ccc(CC2c3cc(OC)c(OC)cc3CC[N+]2(C)CCC(=O)OCCCCCOC(=O)CC[N+]2(C)CCc3cc(OC)c(OC)cc3C2Cc2ccc(OC)c(OC)c2)cc1OC (stereo not drawn) | Inactive | 0 | < 4 | Inactive | 0 | < 4 | Inactive | 0 | < 4 | Inactive | 0 | < 4 | Inactive | 0 | < 4 | 0 | 0 | Inactive |
| CC1=C(CC(=O)O)c2cc(F)ccc2/C1=C\c1ccc([S+](C)[O-])cc1 (stereo not drawn) | Inactive | 0 | < 4 | Inactive | 0 | < 4 | Inactive | 0 | < 4 | Inactive | 0 | < 4 | Inactive | 0 | < 4 | 0 | 0 | Inactive |
| CCOC(=O)[C@H](CCc1ccccc1)N[C@@H](C)C(=O)N1Cc2ccccc2C[C@H]1C(=O)O | Inactive | 1.4 | >= 4 | Inactive | 1.2 | >= 4 | Inactive | 0.4 | < 4 | Inactive | 1.1 | >= 4 | Inactive | 1.4 | >= 4 | 0 | 0 | Inactive |
| CC(C)(C)NC(=O)[C@@H]1CN(Cc2cccnc2)CCN1C[C@@H](O)C[C@@H](Cc1ccccc1)C(=O)N[C@H]1c2ccccc2C[C@H]1O.O | Active | 54.8 | >= 4 | Active | 116.4 | >= 4 | Active | 44.5 | >= 4 | Active | 137 | >= 4 | Active | 13.7 | < 4 | 5 | 0 | Active |
| CCOC(=O)[C@H](CCc1ccccc1)N[C@@H](C)C(=O)N1CCC[C@H]1C(=O)O | Inactive | 0.9 | >= 4 | Inactive | 0.8 | >= 4 | Inactive | 0.6 | >= 4 | Inactive | 1 | >= 4 | Inactive | 0.2 | >= 4 | 0 | 0 | Inactive |
